According to US8895032B2, “Dendritic nano-antioxidants” (Central Michigan University, priority 2009, dated 2014):
pIC50: −log10 of the molar value. Values belong to the compound of their own block, whether it stands above or below them.

Experiments:
[1] = DPPH radical assay
Method: The DPPH assay was one of three electron transfer (ET) assays used to determine the antioxidant potential of compound 1 (described in Example 6) in comparison to its monomeric counterpart (syringaldehyde) as well as popular antioxidants. In an ET assay, an antioxidant donates electron(s) to a molecular probe, thus reducing it. From the assay, thermodynamic conversion of antioxidant to antioxidant radical (oxidation) is measured during a fixed time period.
The reduction of DPPH radical was determined for ascorbic acid, Trolox, syringaldehyde, and the compound 1 described in Example 6 as previously reported (Brand-Williams, et al. Lebensm.-Wiss U.-Technol. 1995, 28, 25-30, incorporated herein by reference in its entirety). In the DPPH assay, DPPH• radical was reduced by the antioxidant in methanol (Brand-Williams, et al. Lebensm.-Wiss U.-Technol. 1995, 28, 25-30, incorporated herein by reference in its entirety). […] The DPPH reagent was made in methanol. Antioxidant sample (10 μL) was added to 1.0 mL of reagent and the absorbance was monitored at 515 nm until a plateau was reached. Antioxidant concentrations were 50 μM syringaldehyde, 12.5 μM Trolox and ascorbic acid, and 5 μM compound 1. All samples were made in methanol and run in triplicates at room temperature.
The DPPH• scavenging capacity of each antioxidant was evaluated from the plot of the percentage DPPH• remaining when the kinetics reached a steady state as a function of the molar ratios of antioxidant to DPPH•. […] Using the curve, EC50 (the amount of antioxidant necessary to decrease the initial DPPH• concentration by 50%), antiradical power (1/EC50, ability to reduce the DPPH•), reaction stoichiometry (EC50×2, the concentration of antioxidant required to reduce 100% of DPPH• radical), and the number of reduced DPPH• per antioxidant molecule (1/stoichiometry) for each antioxidant were calculated as previously described (Brand-Williams, et al. Lebensm.-Wiss U.-Technol. 1995, 28, 25-30, incorporated herein by reference in its entirety) and are depicted in Table 1.
Antioxidant capacity of the compounds was assessed by the DPPH assay (Brand-Williams, et al. Lebensm. Wiss. Technol. 1995, 28, 25, incorporated herein by reference in its entirety). […] In FIG. 22, control with methanol is (X, dashed); compound 1 is (□), compound 2 is (•), compound 3 is (◯), and Trolox (Δ). All antioxidant concentrations were 5 μM.
The free-radical scavenging ability of the antioxidants was evaluated by the DPPH assay, as described above in Example 7.

[2] = ABTS radical cation decolorization assay; type: biochemical
Source text: We have tested AO activity of G1 (13) using ABTS as a radical source using a previously reported spectroscopic assay. The AO activity of the G1 (13) was compared to those of syringaldehyde, gallic acid, and vitamin C. If the phenolic OH group is the radical scavenging site, the expected AO activity of the G1 (13) should be 4 fold higher than that of syringaldehyde and 1.3 fold higher than that of gallic acid (which has three phenolic OH groups).
ABTS radical cation decolorization assay was used as previously described (Ozgen, et al. J. Agric. Food Chem. 2006, 54, 1151-1157, incorporated herein by reference in its entirety). Like the DPPH assay, this was also a decolorization assay and measured absorbance decrease at 734 nm as the ABTS radical (ABTS•+) is quenched by the antioxidant. The solvent used for the assay was ethanol. ABTS reagent was added to 1.0 mL solvent in a cuvet to bring the absorbance to 0.7. A 10 μL sample of antioxidant was then added, mixed, and the absorbance monitored at 734 nm for 6 min. Antioxidant concentrations were 14.4 μM Trolox, 11.4 μM ascorbic acid, 15.4 μM syringaldehyde, and 3 μM compound 1. The % decrease in absorbance at 6 min was plotted against antioxidant concentrations. The gradient of the line obtained by linear regression for a given antioxidant was divided by that obtained for Trolox to yield Trolox equivalent antioxidant (TEAC) values. All samples were made in ethanol and run in triplicates and at room temperature.

[3] = FRAP assay (reduction of Fe(III) to Fe(II)); type: biochemical; set-up: Slope of ΔA593 versus concentration: unit not given here; details: for Slope of ΔA593 versus concentration: 37° C.
Method: The FRAP assay was performed as previously described (Pulido, et al. J. Agric. Food Chem. 2000, 48, 3396-3402, incorporated herein by reference in its entirety). In the FRAP assay, ferric was reduced by the antioxidant to ferrous via electron transfer (Benzie et al., Anal. Biochem. 1996, 239, 70-76, incorporated herein by reference in its entirety). This assay measured the redox potential of an antioxidant which is used as an estimate of antioxidant efficiency and expressed as a FRAP value. […] The compound 1 as well as the other antioxidants was dissolved in methanol. […] Reaction kinetics of the compound 1 and other antioxidants were obtained by plotting the change in slopes at various times and are shown in FIG. 18. […] This time-dependent increase in absorbance was previously reported (Pulido, et al. J. Agric. Food Chem. 2000, 48, 3396-3402, incorporated herein by reference in its entirety) and was especially significant with polyphenolic compounds. […] However, the FRAP value increased with time, reaching 2.5 in 60 min. […] J. Agric. Food Chem. 2000, 48, 3396-3402, incorporated herein by reference in its entirety). […] EC1 values, and therefore ferric reducing ability, were lower at longer reaction times as expected from the kinetic behavior of the antioxidants (Pulido, et al. J. Agric. Food Chem. 2000, 48, 3396-3402, incorporated herein by reference in its entirety).

[4] = Brand-Williams et al.; cited from earlier work
[5] = system: Human LDL; experiment: Protection of LDL from AAPH oxidation (agarose gel electrophoresis); type: biochemical; details: 1-30 μM, 20 mM AAPH, 21 h, 37° C.
Source text: The antioxidant activity of compounds 1, 2, and 3 towards biomolecules was examined by studying their ability to protect LDL, fatty acid, and DNA from free radicals. For LDL, AAPH was used to induce free radical damage. AAPH was used instead of copper (Cu^2) ion for LDL oxidation so that the free radical scavenging activity of the antioxidants could be measured without any pro-oxidant interference caused by metal ions (Salah, N. et al. Arch. Biochem. Biophys. 1995, 322, 339, incorporated herein by reference in its entirety). All solutions were made in ultra-pure water.
Protection of LDL from AAPH free radicals by the antioxidant decreased the anodic shift in a dose-dependent manner (FIG. 23). […] The increased hydrophobicity of compound 3 may be partly responsible for its improved LDL protection over compound 2.
The antioxidant activity of the antioxidants towards biomolecules was examined by studying their ability to protect LDL, lysozyme, and DNA from free radicals. For LDL, AAPH was used to induce free radical damage. AAPH was used instead of Cu^2+ for LDL oxidation so that the free radical scavenging activity of the antioxidants could be measured without any pro-oxidant interference caused by metal ions. The oxidation of human low-density lipoprotein was used as a model for evaluating the ability of the G1 dendrimers as chain-breaking antioxidants for lipid. Oxidation of LDL leads to changes in both the lipid and the protein moieties of the lipoprotein particle. Lipid peroxidation in LDL has been evaluated by a variety of methods. Due to the complexity of events that occur in lipoprotein oxidation, the electrophoretic migration pattern of oxidized LDL is one of the best methods to evaluate the extent of lipoprotein oxidation. LDL was incubated with 20 mM AAPH and increasing concentrations of the G1 dendrimers (0-37 μM in PBS) for 21 h at 37° C. The mixture was then subjected to agarose gel electrophoresis using the Ciba Corning Clinical Electrophoresis System. The agarose gel was stained with Fat Red 7B. In FIG. 30A (top), lane 1 is native LDL, and lanes 2-8 are AAPH-oxidized LDL with 0, 37, 18.5, 9, 4.5, 2 and 1 μM compound 4, respectively. In FIG. 30B (bottom), lane 1 is native LDL, and lanes 2-8 are AAPH-oxidized LDL with 0, 37, 18.5, 9, 4.5, 2 and 1 μM quercetin or Trolox, respectively.

[6] = system: plasmid DNA pBR 322; experiment: Protection of plasmid DNA from AAPH damage (agarose electrophoresis); type: biochemical; details: 10 mM AAPH, 37° C., 4 h
Method: The effectiveness of the three compounds to protect DNA from AAPH damage was also determined. The plasmid DNA pBR 322 was incubated with AAPH (final concentration 10 mM) at 37° C. for 4 h with or without antioxidants (final concentrations, 0.35-45 μM), after which the samples were subjected to agarose electrophoresis (Sakihama, Y., et al. Toxicology 2002, 177, 67, incorporated herein by reference in its entirety). […] In the absence of AAPH, pBR 322 was mostly in its supercoiled (S) form (small amount of open circular, O, form was also visible, lane 1 FIG. 25). After reaction with AAPH, the DNA was transformed almost entirely into its open circular form (lane 2, FIG. 25). […] No protection was obtained for both compound 1 and quercetin below 5 μM (lanes 7-10, FIG. 25). […] Compound 3 as well as Trolox were ineffective at all concentrations used in the experiment (0.35-45 μM).
Protection of DNA from free radical damage by the antioxidant dendrimers (compounds 4, 5, and 1) was also evaluated. Plasmid DNA (pBR 322) samples, were incubated with AAPH (final concentration 10 mM) at 37° C. for 4 h with antioxidants (final concentrations, 0.35-45 μM) and subjected to agarose electrophoresis. […] The native DNA was mostly in its supercoiled (S) form (small amount of open circular, O, form was also visible, lane 1, FIG. 31). In the presence of AAPH, the DNA was transformed almost entirely into its O form (lane 2, FIG. 31). […] Negligible DNA protection was afforded by all three dendrimers at ≦2.5 μM (lanes 7-10, FIG. 31). Under similar conditions, Trolox as well as the starting materials for dendrimer synthesis were ineffective at all concentrations.

[7] = system: pBR 322 DNA with Cu2+; experiment: Pro-oxidant effect: oxidation of DNA with copper (II) ion; details: 10 μM Cu2+, 37° C., 1 h
Method: The pro-oxidant effect of compounds 1, 2, and 3 was examined by oxidation of DNA with copper (II) ion. pBR 322 was incubated with 10 μM Cu^2+ at 37° C. for 1 h in the presence of compound 1, 2, or 3 (final concentrations between 0.35 and 45 μM). […] Lane 1 is native DNA, and lanes 2-10 are Cu^2+-oxidized DNA with 0, 45, 23, 11, 5, 3, 1.5, 0.7, and 0.35 μM antioxidant, respectively.
This was performed by co-incubation of DNA (pBR 322), copper (II) ion and antioxidant. […] This ultimately forms DNA-Cu(I)OOH, initiating a free radical cascade by which DNA damage occurs. pBR 322 was incubated with 10 μM Cu^2+ in the presence of antioxidants (0-45 μM) at 37° C. for 1 h and subjected to agarose electrophoresis. […] In FIG. 32, lane 1 is native DNA, and lanes 2-10 are Cu^2+ oxidized DNA with 0, 45, 23, 11, 5, 3, 1.5, 0.7, and 0.35 μM antioxidant, respectively. […] However, it should be noted that physiological concentrations of copper are less than 10-20 μM in plasma and approximately […] for the cation in cells.

- pIC50 ([2]; final concentration in the cuvet, read-out: concentration at which 50% inhibition of ABTS•+ was observed): ~4.89
SMILES: O=C1O[C@H]([C@@H](O)CO)C(O)=C1O [Ascorbic acid, ascorbic acid]
- # of DDPH• reduced per antioxidant molecule (1/stoichiometry) [1]: 1.8
- Antioxidant Capacity Relative to Trolox, DPPH [1]: 1
- Antioxidant Capacity Relative to Trolox, ABTS [2]: 0.90
- time to reach a plateau of ABTS•+ absorbance suppression ([2]; 14.4 μM Trolox, 11.4 μM ascorbic acid): one
- Slope of % decrease in absorbance at 6 min versus antioxidant concentration ([2]; linear regression, concentration in μM): 3.6
- TEAC ([2]; slope divided by that of Trolox, % decrease in A734 at 6 min, ethanol): 0.9
- Antioxidant Capacity Relative to Trolox, FRAP 5 min ([3]; 5 min): 0.91
- EC1 (concentration with ferric-TPTZ reducing ability equivalent to 1 mM FeSO4.7H2O) ([3]; 5 min): 505 µM
- FRAP value relative to Fe(II) ([3]; 5 min, listed as Ascorbic Acid): 2.0
- FRAP value relative to Fe(II) ([3]; 5 min, listed as ascorbic acid): ~2
- FRAP value relative to Fe(II) ([3]; 15 min): 2.1
- FRAP value relative to Fe(II) ([3]; 30 min): 2.3
- Antioxidant Capacity Relative to Trolox, FRAP 60 min ([3]; 60 min): 1.1
- EC1 (concentration with ferric-TPTZ reducing ability equivalent to 1 mM FeSO4.7H2O) ([3]; 60 min): 395 µM
- FRAP value relative to Fe(II) ([3]; 60 min): 2.5
- Slope of ΔA593 versus concentration ([3]; Reaction time 5 min): 0.0238
- Slope of ΔA593 versus concentration ([3]; Reaction time 15 min): 0.0255
- Slope of ΔA593 versus concentration ([3]; Reaction time 30 min): 0.0272
- Slope of ΔA593 versus concentration ([3]; Reaction time 60 min): 0.0305
- ARP, previously reported value [4]: 3.70
- Stoichiometry, previously reported value [4]: 0.54
- number of reduced DPPH• per antioxidant molecule, previously reported value [4]: 1.85

- pIC50 ([1]; read-out: DPPH IC50 at 120 min, Example 15): 5.00
SMILES: O=c1c(O)c(-c2ccc(O)c(O)c2)oc2cc(O)cc(O)c12 [quercetin]
- protection of LDL at all antioxidant concentrations [5]: ineffective
- DNA protection ([6]; 5 μM antioxidant): not
- DNA protection ([6]; below 5 μM antioxidant): No protection
- pro-oxidant DNA damage ([7]; 11-45 μM antioxidant): DNA damage was clearly observed
- pro-oxidant effect ([7]; between 3 and 5 μM antioxidant): more pronounced pro-oxidant effect than compound 1
